Source: patent publication US10500245B2, “Compositions for preventing and/or treating pathological conditions associated with alpha-glucosidase” (UNIVERSITE DE LA ROCHELLE, priority 2014, dated 2019)
Like-named read-outs stand apart in the source and are kept apart here. Where a SMILES comes first, the peptide text is derived from it. Where no end group is shown, it is not given here.

What was measured:
[1] = biological target: T1, recombinant alpha-glucosidase from S. cerevisiae (maltase) (Saccharomyces cerevisiae, UniProt P53341); test: biochemical; format: biochemical; conditions: for IC50: Table 2; for inhibition of α-glucosidase in words: relative to acarbose, miglitol and voglibose
T1 construct: purchased Sigma G0660-750UN
Protocol: 20 μl of α-glucosidase in 0.1M potassium phosphate buffer (pH 6.8) at 1.6 U/ml is mixed with 8 μl of the peptide sample or of the reference inhibitor at different concentrations.
The samples are solubilized beforehand in milliQ water containing 10% DMSO (available from Sigma under reference 472301).
After preincubation at 37° C. for 15 min, 20 μl of the substrate p-NPG at 20 mM in 0.1M potassium phosphate buffer (pH 6.8) is added to the mixture in order to start the reaction.
The reaction medium is incubated for 30 min at 37° C. and then the reaction is stopped by adding 80 μl of a 1M solution of sodium carbonate (Na2CO3).
The quantity of product formed (p-nitrophenyl) is measured by reading the absorbance at 410 nm using the Fluostar Omega spectrophotometer (BMG Labtech, Germany).
(§1) All the inhibition tests are carried out in triplicate.
The enzyme used is recombinant alpha-glucosidase from S. cerevisiae (it is a maltase available from Sigma, under reference G0660-750UN).
The substrate used is 4-nitrophenyl α-D-glucopyranoside (p-NPG) (available from Sigma under reference N1377).

DPP-IV from pig kidney = biological target: T2, DPP-IV from pig kidney (Sus scrofa, UniProt P22411); test: In-vitro determination of the inhibition of DPP-IV by synthetic peptides (Example 14); format: biochemical; conditions: for IC50 / inhibitory activity of DPP-IV (IC50) in mmol/l: Table 13, substrate Gly-L-Pro-p-nitroanilide, pH 8.0, 37° C.; for IC50: read-out: inhibitory activity of DPP-IV (IC50); for inhibition of DPP-IV in words: relative to the reference Diprotin A
T2 construct: The enzyme used is DPP-IV from pig kidney; purchased Sigma D7052; host or cells: pig kidney
Protocol: The inhibitory activity of synthetic peptides can be measured in vitro according to the following protocol:
25 μl of the substrate Gly-L-Pro-p-nitroanilide in 0.1 M Tris-HCL buffer (pH 8.0) at 1.6 mM is mixed with 25 μl of the peptide sample or of reference inhibitor at different concentrations. The samples are solubilized beforehand in Tris HCL buffer (pH8.0).
After preincubation at 37° C. for 10 min, 50 μl of the DPP-IV enzyme at a concentration of 0.01 U/ml in 0.1 M Tris-HCL buffer (pH 8.0) is added to the mixture in order to start the reaction. The reaction medium is incubated for 60 min at 37° C. and then the reaction is stopped by adding 100 μl of 1M sodium acetate buffer (pH4).
The quantity of product formed (p-nitroanilide) is measured by reading the absorbance at 385 nm using the Fluostar Omega spectrophotometer (BMG Labtech, Germany).
as §1
The substrate used is Gly-L-Pro-p-nitroanilide hydrochloride (available from Sigma under reference G0513).
The enzyme used is DPP-IV from pig kidney (available from Sigma under reference D7052).
The reference inhibitor is Diprotin A, corresponding to the Ile-Pro-Ile tripeptide (available from Sigma under reference 19759).

[2] = biological target: recombinant alpha-glucosidase from Saccharomyces cerevisiae, which is a maltase (Saccharomyces cerevisiae, UniProt P53341); test: biochemical; conditions: for inhibition of alpha-glucosidase in words: relative to the AP and VAP peptides; for median inhibitory concentration of alpha-glucosidase (maltase), times lower relative to the reference inhibitors: relative to acarbose and miglitol
Protocol: The synthetic peptides were supplied by GENOSPHERE Biotechnologies.
The alpha-glucosidase used is the recombinant alpha-glucosidase from Saccharomyces cerevisiae, which is a maltase.
The samples were solubilized beforehand in deionized water containing 10% of DMSO (dimethyl sulphoxide).
After incubation at 37° C. for 20 minutes, 20 μL of the substrate p-NPG (p-nitrophenyl glucopyranoside) at 2.5 mM (prepared in the same buffer as mentioned above) was added to the mixture in order to start the reaction.
The reaction medium was incubated for 30 minutes at 37° C. and then the reaction was stopped by adding 80 μL of a solution of sodium carbonate (Na2CO3) at 0.3M.
The quantity of product formed (p-nitrophenyl (p-NP) of yellow colour) was measured by spectrophotometry (absorbance at 410 nm, VersaMax™, Microplate Reader).
The test was carried out in a 96-well microplate.
All the inhibition tests were carried out in triplicate.
The percentage inhibition was calculated from the following equation: […]
OD sample assay corresponds to the optical density obtained for the mixture “sample+enzyme+substrate”.
OD assay blank corresponds to the optical density obtained for the mixture “sample+buffer”.
OD control assay corresponds to the optical density obtained for the mixture “buffer+enzyme+substrate”.
OD control blank corresponds to the optical density obtained for the buffer.

α-glucosidase = test: In-vitro determination of the type of inhibition (Lineweaver-Burk, hydrolysis of p-NPG); format: biochemical; conditions: straight lines intersect at 1/Vmax
Protocol: The three straight lines are as follows: • Filled circle: […] • Empty circle: test in the presence of 50 μM of AP • Filled triangle: test in the presence of 100 μM of AP
Based on the initial rates, the Lineweaver-Burk representations for each concentration of inhibitor LKP were shown and the type of inhibition was determined. The synthetic LKP peptide was supplied by GENOSPHERE Biotechnologies.
Based on the initial rates, the Lineweaver-Burk representations for each concentration of inhibitor AP were shown and the type of inhibition was determined.

saccharase = saccharase (Homo sapiens, UniProt P14410); conditions: in particular saccharase; cited from earlier work
db/db mice = test: Oral test of tolerance to maltose in vivo in db/db mice (Example 5); conditions: maltose 2 g/kg; for effect on the glycaemia of the mice during the test of tolerance to maltose: alone or in combination
Protocol: The inhibitory activity of the AP and VAP peptides and the effect of the AP and VAP peptides on the glycaemic response can be measured in an oral test of tolerance to maltose in vivo in db/db mice that have a glucose intolerance of genetic origin. The mice are 4 weeks of age and each mouse is its own control. A dose of maltose (2 g/kg) was used in order to cause a temporary increase in glycaemia. Four (4) oral tests of tolerance to maltose (2 g/kg) were carried out on each mouse with a minimum interval of 48 h. The order was determined so as to cancel a potentially confounding effect of a change in body composition of the mice during the 3 study weeks. […] The maltose and the test products were administered directly by the oral route (gastric gavage), diluted in 0.9% saline solution. […] • Main Criterion: […] […] The secondary criteria for evaluation were: […] The AUC (area under the curve) was estimated by the trapezium method.

[3] = Inhibitory activity on α-glucosidase (IC50) in mg/ml
[4] = Inhibitory activity on α-glucosidase (IC50) in mmol/l, enzyme 1.6 U/ml, p-NPG 20 mM, pH 6.8, 37° C.
[5] = enzyme 1.6 U/ml, p-NPG 20 mM, pH 6.8, 37° C., read-out: Inhibitory activity on α-glucosidase (IC50)
[6] = read-out: Inhibitory activity on α-glucosidase (IC50) in mg/ml (converted)
[7] = Table 1, enzyme 0.2 U/mL, p-NPG 2.5 mM, pH 6.8, 37° C., read-out: Inhibitory activity on α-glucosidase (IC50)
[8] = Table 1, enzyme 0.2 U/mL, p-NPG 2.5 mM, pH 6.8, 37° C.

Chain of recombinant alpha-glucosidase from Saccharomyces cerevisiae, which is a maltase (P53341 whole entry): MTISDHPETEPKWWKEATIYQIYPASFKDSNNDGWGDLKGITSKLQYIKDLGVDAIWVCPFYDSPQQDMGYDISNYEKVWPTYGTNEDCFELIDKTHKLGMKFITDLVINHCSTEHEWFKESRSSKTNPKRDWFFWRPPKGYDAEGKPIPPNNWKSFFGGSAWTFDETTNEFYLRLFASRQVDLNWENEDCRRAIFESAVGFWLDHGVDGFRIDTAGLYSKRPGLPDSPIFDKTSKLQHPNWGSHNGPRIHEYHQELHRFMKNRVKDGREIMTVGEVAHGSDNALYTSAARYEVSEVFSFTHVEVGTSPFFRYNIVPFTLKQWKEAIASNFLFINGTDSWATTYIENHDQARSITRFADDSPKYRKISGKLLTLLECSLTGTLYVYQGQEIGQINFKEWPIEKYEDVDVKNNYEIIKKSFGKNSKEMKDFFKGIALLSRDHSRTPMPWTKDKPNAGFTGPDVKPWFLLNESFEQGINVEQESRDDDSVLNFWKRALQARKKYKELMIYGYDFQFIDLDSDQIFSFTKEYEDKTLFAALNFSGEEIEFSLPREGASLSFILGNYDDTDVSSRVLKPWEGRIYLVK
T1 sequence (P53341 whole entry): as above
T2 sequence (P22411 whole entry): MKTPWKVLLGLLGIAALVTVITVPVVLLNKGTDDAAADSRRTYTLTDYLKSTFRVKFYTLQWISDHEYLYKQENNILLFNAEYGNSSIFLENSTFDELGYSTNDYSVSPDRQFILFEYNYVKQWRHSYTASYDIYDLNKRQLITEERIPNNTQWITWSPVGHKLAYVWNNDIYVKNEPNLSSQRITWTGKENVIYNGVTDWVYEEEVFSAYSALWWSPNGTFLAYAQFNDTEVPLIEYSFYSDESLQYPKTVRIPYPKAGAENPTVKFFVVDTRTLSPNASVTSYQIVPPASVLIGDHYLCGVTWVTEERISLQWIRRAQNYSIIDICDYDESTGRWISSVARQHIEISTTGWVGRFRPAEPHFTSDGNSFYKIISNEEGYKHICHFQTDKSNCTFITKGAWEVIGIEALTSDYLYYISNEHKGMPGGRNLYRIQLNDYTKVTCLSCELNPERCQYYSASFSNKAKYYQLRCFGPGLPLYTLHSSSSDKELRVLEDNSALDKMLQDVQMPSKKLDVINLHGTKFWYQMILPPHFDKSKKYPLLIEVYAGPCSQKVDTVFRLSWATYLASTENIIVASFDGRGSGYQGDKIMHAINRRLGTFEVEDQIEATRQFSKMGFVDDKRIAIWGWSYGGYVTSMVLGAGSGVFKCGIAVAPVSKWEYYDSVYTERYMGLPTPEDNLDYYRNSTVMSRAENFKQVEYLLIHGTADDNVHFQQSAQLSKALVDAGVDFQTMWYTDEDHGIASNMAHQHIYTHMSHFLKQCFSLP
Chain of saccharase (P14410 whole entry): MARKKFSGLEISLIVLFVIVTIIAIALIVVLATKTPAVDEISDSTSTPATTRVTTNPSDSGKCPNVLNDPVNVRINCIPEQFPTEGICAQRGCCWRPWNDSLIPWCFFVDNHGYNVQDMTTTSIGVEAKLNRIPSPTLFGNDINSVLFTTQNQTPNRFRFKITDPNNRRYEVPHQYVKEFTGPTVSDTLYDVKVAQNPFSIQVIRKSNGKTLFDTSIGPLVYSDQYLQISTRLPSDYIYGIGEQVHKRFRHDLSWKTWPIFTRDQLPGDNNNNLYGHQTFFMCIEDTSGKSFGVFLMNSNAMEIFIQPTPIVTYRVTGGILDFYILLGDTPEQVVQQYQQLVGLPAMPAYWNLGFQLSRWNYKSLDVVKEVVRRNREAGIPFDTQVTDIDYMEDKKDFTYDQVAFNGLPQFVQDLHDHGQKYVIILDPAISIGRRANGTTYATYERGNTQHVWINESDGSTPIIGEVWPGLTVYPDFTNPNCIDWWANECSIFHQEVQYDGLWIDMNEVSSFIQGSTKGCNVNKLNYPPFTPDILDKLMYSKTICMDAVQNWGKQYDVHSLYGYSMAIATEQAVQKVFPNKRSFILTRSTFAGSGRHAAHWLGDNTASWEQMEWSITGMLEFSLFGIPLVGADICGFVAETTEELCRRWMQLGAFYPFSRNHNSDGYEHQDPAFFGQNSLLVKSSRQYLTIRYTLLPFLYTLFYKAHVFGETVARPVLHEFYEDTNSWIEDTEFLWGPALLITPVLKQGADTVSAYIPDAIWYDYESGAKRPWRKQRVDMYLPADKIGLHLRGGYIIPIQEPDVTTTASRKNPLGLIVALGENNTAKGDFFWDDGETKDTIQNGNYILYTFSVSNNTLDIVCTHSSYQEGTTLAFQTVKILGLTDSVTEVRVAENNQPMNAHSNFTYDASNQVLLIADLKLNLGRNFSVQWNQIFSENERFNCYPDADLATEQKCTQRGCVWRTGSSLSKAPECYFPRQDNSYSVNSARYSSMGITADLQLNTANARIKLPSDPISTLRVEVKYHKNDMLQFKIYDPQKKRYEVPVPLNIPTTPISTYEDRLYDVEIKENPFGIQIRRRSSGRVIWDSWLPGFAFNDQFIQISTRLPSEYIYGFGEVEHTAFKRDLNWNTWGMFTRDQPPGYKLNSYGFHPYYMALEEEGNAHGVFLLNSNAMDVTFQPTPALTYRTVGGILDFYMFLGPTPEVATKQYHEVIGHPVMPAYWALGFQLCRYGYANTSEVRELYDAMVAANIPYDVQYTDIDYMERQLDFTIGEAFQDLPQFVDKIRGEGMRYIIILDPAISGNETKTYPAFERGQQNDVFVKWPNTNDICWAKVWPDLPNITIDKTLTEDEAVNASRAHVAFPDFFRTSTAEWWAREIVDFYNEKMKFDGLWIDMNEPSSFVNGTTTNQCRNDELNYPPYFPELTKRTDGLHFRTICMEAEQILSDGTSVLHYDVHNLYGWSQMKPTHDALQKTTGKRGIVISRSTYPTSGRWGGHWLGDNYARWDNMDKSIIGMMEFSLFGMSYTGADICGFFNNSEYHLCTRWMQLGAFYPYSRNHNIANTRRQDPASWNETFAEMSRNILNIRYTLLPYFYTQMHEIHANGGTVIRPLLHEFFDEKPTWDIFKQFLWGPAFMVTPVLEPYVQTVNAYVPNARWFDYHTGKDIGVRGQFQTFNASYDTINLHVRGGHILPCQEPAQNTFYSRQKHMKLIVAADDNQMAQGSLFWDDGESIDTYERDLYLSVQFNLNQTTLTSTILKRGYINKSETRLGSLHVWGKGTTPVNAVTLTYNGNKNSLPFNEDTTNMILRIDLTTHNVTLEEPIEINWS

Work on VAPFPEV [VAPFPEV] yielded an IC50 [1, 3] of 2.68 mM and an IC50 (DPP-IV from pig kidney) of 1.184 ± 0.008 mM.
`CC(C)C[C@H](N)C(=O)N[C@@H](CCCCN)C(=O)N1CCC[C@H]1C(=O)O` [LKP] (H-Leu-Lys-Pro-OH; N-terminus and C-terminus assumed) showed an IC50 [1, 3] of 7.1 mM, an IC50 [1, 4] of 7.11 ± 0.2 mM and an IC50 ([2]; Inhibitory activity on α-glucosidase (IC50) in mM, Table 1, enzyme 0.2 U/mL, p-NPG 2.5 mM, pH 6.8, 37° C.) of 7.11 ± 0.2 mM. For the same molecule, the “inhibition of alpha-glucosidase in words” value [2] was “weak inhibitors” and the “type of inhibition of the degradation of p-NPG” value (α-glucosidase) was “competitive”.
In the case of `NCCCC[C@H](N)C(=O)N[C@@H](Cc1c[nH]c2ccccc12)C(=O)O` [KW] (H-Lys-Trp-OH; N-terminus and C-terminus assumed), the IC50 [1, 5] is reported as 12.8 ± 0.98 mM, the IC50 [1, 6] is reported as 12.7 mM and the IC50 [2, 7] is reported as 12.8 ± 0.98 mM. The “inhibition of alpha-glucosidase in words” value [2] was “weak inhibitors”.
`CC(C)C[C@H](NC(=O)[C@@H]1CCCN1C(=O)CN)C(=O)O` [GPL] (H-Gly-Pro-Leu-OH; N-terminus and C-terminus assumed) showed an IC50 [1, 5] of 4.82 ± 0.15 mM, an IC50 [1, 6] of 4.81 mM and an IC50 (DPP-IV from pig kidney) of 1.85 ± 0.298 mM. The IC50 [2, 7] was 4.82 ± 0.15 mM and the “inhibition of alpha-glucosidase in words” value [2] was “weak inhibitors”.
VGVAPG [VGVAPG] showed an IC50 [1, 3] of 4.58 mM, an IC50 [1, 4] of 4.59 ± 0.06 mM and an IC50 (DPP-IV from pig kidney) of 10.7 ± 0.769 mM.
With AVPYQR [AVPYQR] the IC50 [1, 3] was 3.19 mM and the IC50 (DPP-IV from pig kidney) was 5.7 ± 0.08 mM.
With VIY: peptide sequence VIY of Table 1 the “Inhibitory activity on α-glucosidase (IC50) in mM” value [2, 8] was “No inhibition”.
In the case of `CC[C@H](C)[C@H](N)C(=O)N[C@@H](Cc1ccc(O)cc1)C(=O)O` [IY] (H-Ile-Tyr-OH; N-terminus and C-terminus assumed), the IC50 [1, 5] is reported as 12.3 ± 0.25 mM, the IC50 [1, 6] is reported as 12.2 mM and the IC50 [2, 7] is reported as 12.3 mM. The “inhibition of alpha-glucosidase in words” value [2] was “weak inhibitors”.
For `OCCN1C[C@H](O)[C@@H](O)[C@H](O)[C@H]1CO` [Miglitol, miglitol, reference compound], the IC50 [1, 3] is listed as 37.5 mM, the IC50 [1, 4] is listed as 37.5 ± 0.69 mM and the “mode of inhibition of alpha-glucosidase” value (saccharase) is listed as “competitively and reversibly”. The IC50 [2, 7] was 39 ± 0.96 mM.
With SAPLRVY [SAPLRVY] the IC50 [1, 3] was 1.76 mM, the IC50 [1, 4] was 1.76 ± 0.18 mM and the IC50 (DPP-IV from pig kidney) was 1.06 ± 0.031 mM.
In the case of AVIPIPT, the “inhibitory activity of DPP-IV (IC50) in mmol/l” value (shortened to “inhibitory activity of DPP-IV”) (DPP-IV from pig kidney) is reported as “No inhibition”.
Molecule `CC(C)[C@H](N)C(=O)N[C@@H](C)C(=O)N1CCC[C@H]1C(=O)NCC(=O)O` [VAPG] (H-VAPG-OH; N-terminus and C-terminus assumed) has an IC50 [1, 3] of 4.05 mM and an IC50 (DPP-IV from pig kidney) of 2.27 ± 0.131 mM.
For AKK: synthetic peptide of sequence AKK, the “Inhibitory activity on α-glucosidase (IC50) in mM” value [2, 8] was “No inhibition”.
With `CC(C)[C@H](N)C(=O)N[C@@H](Cc1ccc(O)cc1)C(=O)O` [VY] (H-Val-Tyr-OH; N-terminus and C-terminus assumed) the IC50 [1, 6] was 2.7 mM, the “inhibitory activity of DPP-IV” value (DPP-IV from pig kidney) was “No inhibition” and the “inhibition of alpha-glucosidase in words” value [2] was “weak inhibitors”.
For `C[C@H](N)C(=O)N1CCC[C@H]1C(=O)O` [AP] (H-Ala-Pro-OH; N-terminus and C-terminus assumed), the IC50 [1, 3] was 0.0134 mM, the “inhibition of α-glucosidase in words” value [1] was “strongly inhibit” and the IC50 (DPP-IV from pig kidney) was 4.78 ± 0.284 mM. The “inhibition of DPP-IV in words” value (DPP-IV from pig kidney) was “very weakly”, the IC50 ([2]; IC50 on α-glucosidase) was 0.0136 ± 0.00092 mM and the “median inhibitory concentration of alpha-glucosidase (maltase), times lower relative to the reference inhibitors” value [2] was “approximately 900 times”. The “type of inhibition of the degradation of p-NPG” value (α-glucosidase) was “competitive”, the “maximum glycaemia value subtracted from the resting value (ΔCmax glycaemia)” value (db/db mice; 500 mg/kg by gastric gavage, resting value 150 mg/dl) was “approximately 280 mg/dl” and the “effect on the glycaemia of the mice during the test of tolerance to maltose” value (db/db mice; 500 mg/kg) was “lower the glycaemia”. For the same molecule, the “effect of treatment on the maximum glycaemia value” (db/db mice; 500 mg/kg) was “significant effect” and the “effect on the glucose AUC during the oral test of tolerance to maltose” value (db/db mice; 500 mg/kg, 0-120 minutes) was “beneficial effect”.
For `CC(C)[C@H](N)C(=O)N[C@@H](C)C(=O)N1CCC[C@H]1C(=O)O` [VAP] (H-Val-Ala-Pro-OH; N-terminus and C-terminus assumed), the IC50 [1, 6] was 0.02 mM, the “inhibition of α-glucosidase in words” value [1] was “strongly inhibit” and the IC50 (DPP-IV from pig kidney) was 4.82 ± 2.3 mM. For the same molecule, the “inhibition of DPP-IV in words” value (DPP-IV from pig kidney) was “very weakly”, the IC50 ([2]; read-out: IC50 on α-glucosidase) was 0.02 ± 0.00021 mM and the “median inhibitory concentration of alpha-glucosidase (maltase), times lower relative to the reference inhibitors” value [2] was “approximately 600 times”. The “effect on the glycaemia of the mice during the test of tolerance to maltose” value (db/db mice; 500 mg/kg) was “lower the glycaemia”.
With `NCCCC[C@H](N)C(=O)N[C@@H](Cc1ccc(O)cc1)C(=O)O` [KY] the IC50 [1, 5] was 10.96 ± 0.1 mM, the IC50 [1, 6] was 10.9 mM and the “inhibitory activity of DPP-IV” value (DPP-IV from pig kidney) was “No inhibition”. The IC50 [2, 7] was 10.96 ± 0.1 mM and the “inhibition of alpha-glucosidase in words” value [2] was “weak inhibitors”.
